From paper PMC10538245, “Fragment merging approach for design, synthesis, and biological assessment of urea/acetyl hydrazide clubbed thienopyrimidine derivatives as GSK-3β inhibitors” (BMC Chemistry, 2023)
Read-outs that look alike come from different tables or passages of the source.

Legend:
GSK-3β [1] = biological target: T1, GSK-3β (Homo sapiens, UniProt P49841); assay: GSK-3β kinase inhibition, Z'-LYTE FRET assay (Thermo Fisher SelectScreen); format: biochemical; conditions: for inhibition at 100 µM: 100 μM single dose; for IC50: five doses 10 nM–100 µM
SF-268 = assay: NCI 60-cell line one dose antiproliferative assay; format: cell-based; conditions: Homo sapiens; SF-268, CNS Cancer, 10 µM one dose; read-out: Percent inhibition (cell growth inhibition %)
Description: (§1) The National Cancer Institute "NCI", NIH, Bethesda, Maryland, USA (www.dtp.nci.nih.gov) chose six of the final compounds for the Developmental Therapeutic Program (DTP), codes (5a, 5b, 5c, 5d, 6a, 6b). The NCI screening service will favor compounds with drug-like modes of action based on computer-aided design. Selection The criterion for screening is the possibility of the submitted compounds to provide diversity to the NCI small molecule chemical collection. This screen employs 60 different Leukemia, melanoma, and additional tumor cell lines of the human from brain, kidney, lung, ovary, colon, breast, and prostate cancers. All compounds were picked based on their NCI codes. NSC: D-820696/1, NSC: D-820697/1, NSC: D-820698/1, NSC: D-820699/1, NSC: D-820700/1, NSC: D-820701/1. The initial 10 µM one dose percent inhibition assay was performed on the entire NCI 60 cell panel to examine the different chemotypes of this work. The results are presented as a percentage of cell growth on each of the 60 NCI cell line panels for each of the investigated substances in Table 2.
(§2) The NCI cancer screening procedure includes a comparison of all substances to the sixty NCI cell line panel representing leukemia, NSCLC, cell lines from breast cancer, prostate cancer, melanoma, CNS cancer, renal cancer, ovarian cancer, and colon cancer at a single point of 10 uM. The results of the single-dose screen can be presented using a mean graph.

SNB-75 = assay: NCI 60-cell line one dose antiproliferative assay; format: cell-based; conditions: Homo sapiens; SNB-75, CNS Cancer, 10 µM one dose; read-out: Percent inhibition (cell growth inhibition %)
Description: as §1, §2

OVCAR-5 = assay: NCI 60-cell line one dose antiproliferative assay; format: cell-based; conditions: Homo sapiens; OVCAR-5, Ovarian Cancer, 10 µM one dose; read-out: Percent inhibition (cell growth inhibition %)
Description: as §1, §2

A549/ ATCC = assay: NCI 60-cell line one dose antiproliferative assay; format: cell-based; conditions: Homo sapiens, Non-Small Cell Lung Cancer, 10 µM one dose, read-out: Percent inhibition (cell growth inhibition %)
Description: as §1, §2

IGROV1 = assay: NCI 60-cell line one dose antiproliferative assay; format: cell-based; conditions: Homo sapiens, IGROV-1; IGROV1, Ovarian Cancer, 10 µM one dose; read-out: Percent inhibition (cell growth inhibition %)
Description: as §1, §2

NCI-H322M = assay: NCI 60-cell line one dose antiproliferative assay; format: cell-based; conditions: Homo sapiens, Non-Small Cell Lung Cancer, 10 µM one dose, read-out: Percent inhibition (cell growth inhibition %)
Description: as §1, §2

M14 = assay: NCI 60-cell line one dose antiproliferative assay; format: cell-based; conditions: Homo sapiens; M14, Melanoma, 10 µM one dose; read-out: Percent inhibition (cell growth inhibition %)
Description: as §1, §2

EKVX = assay: NCI 60-cell line one dose antiproliferative assay; format: cell-based; conditions: Homo sapiens, Non-Small Cell Lung Cancer, 10 µM one dose, read-out: Percent inhibition (cell growth inhibition %)
Description: as §1, §2

MDA-MB-231/ATCC = assay: NCI 60-cell line one dose antiproliferative assay; format: cell-based; conditions: Homo sapiens, Breast Cancer, 10 µM one dose, read-out: Percent inhibition (cell growth inhibition %)
Description: as §1, §2

SNB-19 = assay: NCI 60-cell line one dose antiproliferative assay; format: cell-based; conditions: Homo sapiens; SNB-19, CNS Cancer, 10 µM one dose; read-out: Percent inhibition (cell growth inhibition %)
Description: as §1, §2

HOP-92 = assay: NCI 60-cell line one dose antiproliferative assay; format: cell-based; conditions: Homo sapiens; HOP-92, Non-Small Cell Lung Cancer, 10 µM one dose; read-out: Percent inhibition (cell growth inhibition %)
Description: as §1, §2

T-47D = assay: NCI 60-cell line one dose antiproliferative assay; format: cell-based; conditions: Homo sapiens, T47D, Breast Cancer, 10 µM one dose, read-out: Percent inhibition (cell growth inhibition %)
Description: as §1, §2

PC-3 = assay: NCI 60-cell line one dose antiproliferative assay; format: cell-based; conditions: Homo sapiens; PC-3, Prostate Cancer, 10 µM one dose; read-out: Percent inhibition (cell growth inhibition %)
Description: as §1, §2

UO-31 = assay: NCI 60-cell line one dose antiproliferative assay; format: cell-based; conditions: Homo sapiens; UO-31, Renal Cancer, 10 µM one dose; read-out: Percent inhibition (cell growth inhibition %)
Description: as §1, §2

786–0 = assay: NCI 60-cell line one dose antiproliferative assay; format: cell-based; conditions: Homo sapiens; 786–0, Renal Cancer, 10 µM one dose; read-out: Percent inhibition (cell growth inhibition %)
Description: as §1, §2

U251 = assay: NCI 60-cell line one dose antiproliferative assay; format: cell-based; conditions: Homo sapiens, U-251; U251, CNS Cancer, 10 µM one dose; read-out: Percent inhibition (cell growth inhibition %)
Description: as §1, §2

NCI-H226 = assay: NCI 60-cell line one dose antiproliferative assay; format: cell-based; conditions: Homo sapiens; NCI-H226, Non-Small Cell Lung Cancer, 10 µM one dose; read-out: Percent inhibition (cell growth inhibition %)
Description: as §1, §2

HS 578 T = assay: NCI 60-cell line one dose antiproliferative assay; format: cell-based; conditions: Homo sapiens, Breast Cancer, 10 µM one dose, read-out: Percent inhibition (cell growth inhibition %)
Description: as §1, §2

SN12C = assay: NCI 60-cell line one dose antiproliferative assay; format: cell-based; conditions: Homo sapiens, Renal Cancer, 10 µM one dose, read-out: Percent inhibition (cell growth inhibition %)
Description: as §1, §2

UACC-62 = assay: NCI 60-cell line one dose antiproliferative assay; format: cell-based; conditions: Homo sapiens; UACC-62, Melanoma, 10 µM one dose; read-out: Percent inhibition (cell growth inhibition %)
Description: as §1, §2

CAKI-1 = assay: NCI 60-cell line one dose antiproliferative assay; format: cell-based; conditions: Homo sapiens; CAKI-1, Renal Cancer, 10 µM one dose; read-out: Percent inhibition (cell growth inhibition %)
Description: as §1, §2

LOX IMVI = assay: NCI 60-cell line one dose antiproliferative assay; format: cell-based; conditions: Homo sapiens, Melanoma, 10 µM one dose, read-out: Percent inhibition (cell growth inhibition %)
Description: as §1, §2

SR = assay: NCI 60-cell line one dose antiproliferative assay; format: cell-based; conditions: Homo sapiens, Leukemia, 10 µM one dose, read-out: Percent inhibition (cell growth inhibition %)
Description: as §1, §2

RXF 393 = assay: NCI 60-cell line one dose antiproliferative assay; format: cell-based; conditions: Homo sapiens; RXF 393, Renal Cancer, 10 µM one dose; read-out: Percent inhibition (cell growth inhibition %)
Description: as §1, §2

RPMI-8226 = assay: NCI 60-cell line one dose antiproliferative assay; format: cell-based; conditions: Homo sapiens; RPMI-8226, Leukemia, 10 µM one dose; read-out: Percent inhibition (cell growth inhibition %)
Description: as §1, §2

A498 = assay: NCI 60-cell line one dose antiproliferative assay; format: cell-based; conditions: Homo sapiens; A498, Renal Cancer, 10 µM one dose; read-out: Percent inhibition (cell growth inhibition %)
Description: as §1, §2

MCF7 = assay: NCI 60-cell line one dose antiproliferative assay; format: cell-based; conditions: Homo sapiens; MCF7, Breast Cancer, 10 µM one dose; read-out: Percent inhibition (cell growth inhibition %)
Description: as §1, §2

MALME-3 M = assay: NCI 60-cell line one dose antiproliferative assay; format: cell-based; conditions: Homo sapiens, Melanoma, 10 µM one dose, read-out: Percent inhibition (cell growth inhibition %)
Description: as §1, §2

K-562 = assay: NCI 60-cell line one dose antiproliferative assay; format: cell-based; conditions: Homo sapiens, K562; K-562, Leukemia, 10 µM one dose; read-out: Percent inhibition (cell growth inhibition %)
Description: as §1, §2

HCT-15 = assay: NCI 60-cell line one dose antiproliferative assay; format: cell-based; conditions: Homo sapiens; HCT-15, Colon Cancer, 10 µM one dose; read-out: Percent inhibition (cell growth inhibition %)
Description: as §1, §2

SF-539 = assay: NCI 60-cell line one dose antiproliferative assay; format: cell-based; conditions: Homo sapiens; SF-539, CNS Cancer, 10 µM one dose; read-out: Percent inhibition (cell growth inhibition %)
Description: as §1, §2

HCT-116 = assay: NCI 60-cell line one dose antiproliferative assay; format: cell-based; conditions: Homo sapiens; HCT-116, Colon Cancer, 10 µM one dose; read-out: Percent inhibition (cell growth inhibition %)
Description: as §1, §2

NCI-H23 = assay: NCI 60-cell line one dose antiproliferative assay; format: cell-based; conditions: Homo sapiens; NCI-H23, Non-Small Cell Lung Cancer, 10 µM one dose; read-out: Percent inhibition (cell growth inhibition %)
Description: as §1, §2

SF-295 = assay: NCI 60-cell line one dose antiproliferative assay; format: cell-based; conditions: Homo sapiens; SF-295, CNS Cancer, 10 µM one dose; read-out: Percent inhibition (cell growth inhibition %)
Description: as §1, §2

NCI-H522 = assay: NCI 60-cell line one dose antiproliferative assay; format: cell-based; conditions: Homo sapiens; NCI-H522, Non-Small Cell Lung Cancer, 10 µM one dose; read-out: Percent inhibition (cell growth inhibition %)
Description: as §1, §2

GSK-3β [2] = biological target: T1, GSK-3β; conditions: cited from earlier work

T1 sequence (P49841 whole entry): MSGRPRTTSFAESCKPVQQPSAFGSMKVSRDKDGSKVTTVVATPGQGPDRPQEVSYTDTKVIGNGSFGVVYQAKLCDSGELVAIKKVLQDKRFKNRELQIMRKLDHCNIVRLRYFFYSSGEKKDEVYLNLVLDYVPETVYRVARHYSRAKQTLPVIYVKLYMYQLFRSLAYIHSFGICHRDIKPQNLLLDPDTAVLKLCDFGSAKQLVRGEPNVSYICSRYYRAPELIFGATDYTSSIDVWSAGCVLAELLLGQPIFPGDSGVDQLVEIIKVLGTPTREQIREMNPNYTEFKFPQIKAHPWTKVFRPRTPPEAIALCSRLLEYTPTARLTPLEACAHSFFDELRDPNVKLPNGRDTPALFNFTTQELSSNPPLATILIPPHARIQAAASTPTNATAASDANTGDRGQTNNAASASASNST

O=C(COc1ncnc2sc3c(c12)CCCC3)NN=Cc1ccc(Cl)cc1 [5b, N'-(4-Chlorobenzylidene)-2-((5,6,7,8-tetrahydrobenzo [4,5]thieno[2,3-d]pyrimidin-4-yl)oxy) acetohydrazide]
melting point: 275 to 276 °C | inhibition at 10 µM (GSK-3β [1]): 3% | inhibition at 100 µM (GSK-3β [1]): 17% | inhibition at 10 µM (SF-268): 4.27% | inhibition at 10 µM (SNB-75): 18.4% | inhibition at 10 µM (OVCAR-5): 8.96% | inhibition at 10 µM (A549/ ATCC): 4.36% | inhibition at 10 µM (IGROV1): 11% | inhibition at 10 µM (NCI-H322M): 0.39% | inhibition at 10 µM (M14): 2% | inhibition at 10 µM (EKVX): 3.11% | inhibition at 10 µM (MDA-MB-231/ATCC): 7.6% | inhibition at 10 µM (SNB-19): 9.77% | inhibition at 10 µM (HOP-92): 0.71% | inhibition at 10 µM (T-47D): 6.96% | inhibition at 10 µM (PC-3): 3.8% | inhibition at 10 µM (UO-31): 23.1% | inhibition at 10 µM (786–0): 2.11% | inhibition at 10 µM (U251): 15.9% | inhibition at 10 µM (NCI-H226): 2.81% | inhibition at 10 µM (HS 578 T): 7.62% | inhibition at 10 µM (SN12C): 2.55% | inhibition at 10 µM (UACC-62): 4.84% | inhibition at 10 µM (CAKI-1): 4.53% | inhibition at 10 µM (LOX IMVI): 7.09% | inhibition at 10 µM (SR): 1.63% | inhibition at 10 µM (RXF 393): 4.13% | inhibition at 10 µM (RPMI-8226): 2.71% | inhibition at 10 µM (A498): 11.1% | inhibition at 10 µM (MCF7): 11.7% | inhibition at 10 µM (MALME-3 M): 6.05% | inhibition at 10 µM (K-562): 0.32%

Cc1cccc(NC(=O)Nc2ncnc3sc4c(c23)CCCC4)c1 [9b, 1-(5,6,7,8-Tetrahydrobenzo[4,5]thieno[2,3-d]pyrimidin-4-yl)-3-(m-tolyl)urea]
melting point: 300 °C | inhibition at 100 µM (GSK-3β [1]): 70% | IC50 (GSK-3β [1]): 28 µM

O=C(COc1ncnc2sc3c(c12)CCCC3)NNC(=S)Nc1ccccc1 [6a]
melting point: 270 to 272 °C | inhibition at 100 µM (GSK-3β [1]): 82% | IC50 (GSK-3β [1]): 17.3 µM | inhibition at 10 µM (SNB-75): 14.6% | inhibition at 10 µM (OVCAR-5): 3.88% | inhibition at 10 µM (HCT-15): 0.17% | inhibition at 10 µM (SF-539): 2.42% | inhibition at 10 µM (HCT-116): 1.5% | inhibition at 10 µM (NCI-H322M): 0.95% | inhibition at 10 µM (M14): 0.96% | inhibition at 10 µM (NCI-H23): 3.1% | inhibition at 10 µM (MDA-MB-231/ATCC): 3.71% | inhibition at 10 µM (SNB-19): 5.27% | inhibition at 10 µM (T-47D): 6.64% | inhibition at 10 µM (PC-3): 3.65% | inhibition at 10 µM (UO-31): 14.8% | inhibition at 10 µM (786–0): 1.23% | inhibition at 10 µM (U251): 3.33% | inhibition at 10 µM (SF-295): 2.64% | inhibition at 10 µM (SN12C): 3.79% | inhibition at 10 µM (NCI-H522): 5.09% | inhibition at 10 µM (UACC-62): 7.2% | inhibition at 10 µM (CAKI-1): 1.14% | inhibition at 10 µM (LOX IMVI): 1.31% | inhibition at 10 µM (RPMI-8226): 3.86% | inhibition at 10 µM (A498): 47% | inhibition at 10 µM (MCF7): 12.3% | inhibition at 10 µM (K-562): 7.06%

S=C(Nc1ccccc1)Nc1ncnc2sc3c(c12)CCCC3 [9a, Phenyl-3-(5,6,7,8-tetrahydrobenzo [4,5]thieno[2,3-d)pyrimidin-4-yl) thiourea]
melting point: 300 °C | inhibition at 10 µM (GSK-3β [1]): 17% | inhibition at 100 µM (GSK-3β [1]): 68%

O=C(Nc1ccc(Cl)c(C(F)(F)F)c1)Nc1ncnc2sc3c(c12)CCCC3 [9c, 1-(4-Chloro-3-(trifluoromethyl)phenyl)-3-(5,6,7,8tetrahydrobenzo[4,5]thieno[2,3-d]pyrimidin-4-yl)urea]
melting point: 300 °C | inhibition at 100 µM (GSK-3β [1]): 68%

COc1ccc(-c2cc3c(NC(=O)c4cccc(F)c4)ncnc3o2)cc1 [II]
IC50 (GSK-3β [2]): > 35 µM

O=C(COc1ncnc2sc3c(c12)CCCC3)NNC(=O)c1ccc([N+](=O)[O-])cc1 [6b]
melting point: 320 to 321 °C
